Data taken from PubChem BioAssay AID330 (DTP/NCI, 2004).
“And” between values parts separate entries of the source, which are not always exact repeats. Identical values can stand only once. Inconclusive results and toxic doses are left out. How the source made its calls: active means survival T/C of 150% or more; inactive means T/C below 125% in these data. Square brackets hold non-standard residues; d marks the D form. Peptide text beside a SMILES is read from it. * marks the point of attachment. ξ: configuration not given here. Nphe = O=C(O)CNCc1ccccc1; ξL = CC(C)CC(N)C(=O)O; Ms = CS(=O)(=O)*

System: P388 leukemia ip, CD2F1 mice, survival T/C
Test: NCI In Vivo Anticancer Drug Screen. Data for tumor model P388 Leukemia (intraperitoneal) in CD2F1 (CDF1) mice
Conditions: endpoint: median survival time, higher = longer survival
Method in brief: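 Mice carrying the transplanted tumor received test compound or vehicle. Survival was recorded in each group, and the value is the treated-group measurement divided by that of the vehicle-treated control group.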

[1] = dose: 15.0 mg/kg/injection, schedule: Q01DX005 (ip), vehicle: saline with Tween-80
[2] = dose: 30.0 mg/kg/injection, schedule: Q01DX005 (ip), vehicle: saline with Tween-80
[3] = dose: 60.0 mg/kg/injection, schedule: Q01DX005 (ip), vehicle: saline with Tween-80
[4] = dose: 100.0 mg/kg/injection, schedule: Q01DX009 (ip), vehicle: saline with Tween-80
[5] = dose: 50.0 mg/kg/injection, schedule: Q01DX009 (ip), vehicle: Klucel (hydroxypropylcellulose) (HPC)
[6] = dose: 100.0 mg/kg/injection, schedule: Q01DX009 (ip), vehicle: Klucel (hydroxypropylcellulose) (HPC)
[7] = dose: 200.0 mg/kg/injection, schedule: Q01DX009 (ip), vehicle: Klucel (hydroxypropylcellulose) (HPC)
[8] = dose: 50.0 mg/kg/injection, schedule: Q01DX009 (ip), vehicle: saline with Tween-80
[9] = dose: 50.0 mg/kg/injection, schedule: Q01DX009 (ip), vehicle: saline
[10] = dose: 25.0 mg/kg/injection, schedule: Q01DX009 (ip), vehicle: saline with Tween-80

Measured: T/C

CCO/C=C1/N=C(c2cc(OC)cc(OC)c2)OC1=O
inactive: [1] 104 % of control | [2] 101 % of control | [3] 90 % of control and 96 % of control | dose: 240.0 mg/kg/injection, schedule: Q01DX005 (ip), vehicle: saline with Tween-80 87 % of control

O=C1C(CO)NC(=S)N1c1ccccc1 (stereo not drawn)
inactive: dose: 12.5 mg/kg/injection, schedule: Q01DX001 (ip), vehicle: saline with Tween-80 109 % of control | dose: 25.0 mg/kg/injection, schedule: Q01DX001 (ip), vehicle: saline with Tween-80 102 % of control | dose: 50.0 mg/kg/injection, schedule: Q01DX001 (ip), vehicle: saline with Tween-80 97 % of control | dose: 100.0 mg/kg/injection, schedule: Q01DX001 (ip), vehicle: saline with Tween-80 105 % of control | dose: 200.0 mg/kg/injection, schedule: Q01DX001 (ip), vehicle: saline with Tween-80 102 % of control

Nc1nnnn1NC(=O)c1ccccc1
inactive: dose: 100.0 mg/kg/injection, schedule: Q04DX003 (ip), vehicle: Klucel (hydroxypropylcellulose) (HPC) 97 % of control | dose: 200.0 mg/kg/injection, schedule: Q04DX003 (ip), vehicle: Klucel (hydroxypropylcellulose) (HPC) 102 % of control | dose: 400.0 mg/kg/injection, schedule: Q04DX003 (ip), vehicle: Klucel (hydroxypropylcellulose) (HPC) 98 % of control

N#CC(c1ccccc1)C(CC(=O)c1ccccc1)c1ccccc1 (stereo not drawn)
inactive: [4] 86 % of control | dose: 200.0 mg/kg/injection, schedule: Q01DX009 (ip), vehicle: saline with Tween-80 95 % of control | dose: 400.0 mg/kg/injection, schedule: Q01DX009 (ip), vehicle: saline with Tween-80 95 % of control

CNC(=O)OCc1c(COC(=O)NC)c(-c2ccc(N)cc2)n(C)c1C
inactive: dose: 6.25 mg/kg/injection, schedule: Q01DX009 (ip), vehicle: distilled water + Tween-80 106 % of control and 92 % of control | dose: 12.5 mg/kg/injection, schedule: Q01DX009 (ip), vehicle: distilled water + Tween-80 119 % of control and 98 % of control | dose: 25.0 mg/kg/injection, schedule: Q01DX009 (ip), vehicle: distilled water + Tween-80 100 % of control and 123 % of control | dose: 50.0 mg/kg/injection, schedule: Q01DX009 (ip), vehicle: distilled water + Tween-80 119 % of control

O=C1C(Cl)=C(NCCCC2CCCN3CCCCC23)C(=O)c2ccccc21 (stereo not drawn)
inactive: dose: 25.0 mg/kg/injection, schedule: Q04DX002 (ip), vehicle: Klucel (hydroxypropylcellulose) (HPC) 100 % of control | dose: 50.0 mg/kg/injection, schedule: Q04DX002 (ip), vehicle: Klucel (hydroxypropylcellulose) (HPC) 101 % of control | dose: 100.0 mg/kg/injection, schedule: Q04DX002 (ip), vehicle: Klucel (hydroxypropylcellulose) (HPC) 114 % of control and 94 % of control

CC1(C)CSC(=S)N1
inactive: dose: 2.5 mg/kg/injection, schedule: Q01DX009 (ip), vehicle: saline sonified 109 % of control | dose: 5.0 mg/kg/injection, schedule: Q01DX009 (ip), vehicle: saline sonified 100 % of control | dose: 10.0 mg/kg/injection, schedule: Q01DX009 (ip), vehicle: saline sonified 100 % of control

CC(C)CC(NC(=O)CN(Cc1ccccc1)S(C)(=O)=O)C(=O)O (stereo not drawn) (Ms-[Nphe]-[ξL]-OH)
inactive: dose: 12.5 mg/kg/injection, schedule: Q01DX009 (ip), vehicle: other 100 % of control | dose: 25.0 mg/kg/injection, schedule: Q01DX009 (ip), vehicle: other 104 % of control | dose: 50.0 mg/kg/injection, schedule: Q01DX009 (ip), vehicle: other 114 % of control | dose: 100.0 mg/kg/injection, schedule: Q01DX009 (ip), vehicle: other 104 % of control | dose: 200.0 mg/kg/injection, schedule: Q01DX009 (ip), vehicle: other 100 % of control

CC1(C(=O)O)CCCC2(C)C(CC(=O)O)C(=O)CCC12 (stereo not drawn)
inactive: dose: 5.0 mg/kg/injection, schedule: Q01DX009 (ip), vehicle: saline with Tween-80 101 % of control | dose: 10.0 mg/kg/injection, schedule: Q01DX009 (ip), vehicle: saline with Tween-80 108 % of control | dose: 20.0 mg/kg/injection, schedule: Q01DX009 (ip), vehicle: saline with Tween-80 99 % of control

O=S(=O)(c1ccc(NC(=S)NCc2cccnc2)cc1)N1CCCCC1
inactive: [5] 92 % of control | [6] 93 % of control | [7] 95 % of control

CCCCCCCCCCCCCCCC(=O)N(C(C)CCCN(CC)CC)C(C)CCCN(CC)CC (stereo not drawn)
inactive: dose: 1.56 mg/kg/injection, schedule: Q01DX009 (ip), vehicle: water 98 % of control | dose: 3.13 mg/kg/injection, schedule: Q01DX009 (ip), vehicle: water 100 % of control | dose: 6.25 mg/kg/injection, schedule: Q01DX009 (ip), vehicle: water 99 % of control | dose: 12.5 mg/kg/injection, schedule: Q01DX009 (ip), vehicle: water 92 % of control

Cc1cc(OC(=O)Nc2cc([N+](=O)[O-])ccc2C)c(Br)cc1Cl
inactive: dose: 12.5 mg/kg/injection, schedule: Q01DX009 (ip), vehicle: saline 98 % of control | dose: 25.0 mg/kg/injection, schedule: Q01DX009 (ip), vehicle: saline 93 % of control | [8] 117 % of control | [9] 100 % of control

CN(C)c1ccc(NC(=S)Nc2ccccc2C(F)(F)F)cc1
inactive: [5] 100 % of control | [6] 100 % of control | [7] 96 % of control

COC(=O)c1ncn(Cc2ccccc2)c1O (tested in a mixture with another compound)
inactive: dose: 60.0 mg/kg/injection, schedule: Q01DX005 (ip), vehicle: water 93 % of control | dose: 120.0 mg/kg/injection, schedule: Q01DX005 (ip), vehicle: water 107 % of control | dose: 240.0 mg/kg/injection, schedule: Q01DX005 (ip), vehicle: water 110 % of control

Cc1cc(-c2c(C)[nH]n(-c3nc4ccc(F)cc4s3)c2=O)n(-c2nc3ccc(F)cc3s2)n1
inactive: [1] 96 % of control | [2] 95 % of control | [3] 100 % of control and 92 % of control

Brc1ccc(C2=CSC3=NCCN23)cc1
inactive: dose: 1.56 mg/kg/injection, schedule: Q01DX009 (ip), vehicle: saline with Tween-80 97 % of control | dose: 3.12 mg/kg/injection, schedule: Q01DX009 (ip), vehicle: saline with Tween-80 94 % of control | dose: 6.25 mg/kg/injection, schedule: Q01DX009 (ip), vehicle: saline with Tween-80 106 % of control and 114 % of control and 93 % of control | dose: 12.5 mg/kg/injection, schedule: Q01DX009 (ip), vehicle: saline with Tween-80 100 % of control and 103 % of control and 122 % of control | dose: 18.75 mg/kg/injection, schedule: Q01DX009 (ip), vehicle: saline with Tween-80 93 % of control | [10] 108 % of control and 113 % of control

N=C(N)SCc1cccc(-c2nc3ccccc3c(=O)o2)c1
inactive: [9] 102 % of control | dose: 100.0 mg/kg/injection, schedule: Q01DX009 (ip), vehicle: saline 113 % of control

S=P(c1ccccc1)(N1CC1)N1CC1
inactive: [10] 109 % of control | dose: 25.0 mg/kg/injection, schedule: Q04DX003 (ip), vehicle: saline with Tween-80 104 % of control | [8] 104 % of control | dose: 50.0 mg/kg/injection, schedule: Q04DX003 (ip), vehicle: saline with Tween-80 104 % of control | [4] 86 % of control | dose: 100.0 mg/kg/injection, schedule: Q04DX003 (ip), vehicle: saline with Tween-80 100 % of control and 113 % of control

COC(=O)c1cn[nH]c1CC(N)=O
inactive: dose: 60.0 mg/kg/injection, schedule: Q01DX005 (ip), vehicle: saline 100 % of control | dose: 120.0 mg/kg/injection, schedule: Q01DX005 (ip), vehicle: saline 103 % of control | dose: 240.0 mg/kg/injection, schedule: Q01DX005 (ip), vehicle: saline 103 % of control

COC(=O)CCC(Cl)(Cl)Cl
inactive: [5] 102 % of control | [6] 102 % of control | [7] 100 % of control
